Assays:
[1] = biological target: T1, Carbonic anhydrase 9 (Homo sapiens, UniProt Q16790)
Description: Inhibition of human carbonic anhydrase 9 incubated for 15 mins prior to testing by stopped flow CO2 hydration assay

[2] = biological target: T1, Carbonic anhydrase 9; test: Activation of human carbonic anhydrase 9 incubated for 15 mins prior to testing by stopped flow CO2 hydration assay
[3] = biological target: Carbonic anhydrase 1 (Homo sapiens, UniProt P00915); test: Inhibition of human carbonic anhydrase 1 incubated for 15 mins prior to testing by stopped flow CO2 hydration assay
[4] = biological target: Carbonic anhydrase 2 (Homo sapiens, UniProt P00918); test: Inhibition of human carbonic anhydrase 2 incubated for 15 mins prior to testing by stopped flow CO2 hydration assay

Carbonic anhydrase 1, sequence (P00915 whole entry): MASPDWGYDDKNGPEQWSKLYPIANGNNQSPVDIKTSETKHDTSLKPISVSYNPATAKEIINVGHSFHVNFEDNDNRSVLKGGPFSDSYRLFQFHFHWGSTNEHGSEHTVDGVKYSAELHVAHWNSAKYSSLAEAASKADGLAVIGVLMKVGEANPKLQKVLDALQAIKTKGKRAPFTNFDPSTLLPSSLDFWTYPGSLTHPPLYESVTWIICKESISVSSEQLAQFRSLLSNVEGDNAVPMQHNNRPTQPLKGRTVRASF

Ki [1]	Activity [2]	Ki [3]	Ki [4]	Structure (SMILES)
317 nM	1.42 µM	34.1 nM	–	O=C(NNC(=S)Nc1ccccc1)c1ccncc1
884 nM	12.5 µM	96.9 nM	–	CCN=C(S)NNC(=O)c1ccncc1
878 nM	–	–	> 10000 nM	CCNC(=S)NNC(=O)c1ccccc1O
1010 nM	–	–	> 10000 nM	NC(=S)NNC(=O)c1ccccc1O
1220 nM	–	–	> 10000 nM	O=C(NNC(=S)Nc1ccccc1)c1ccccc1O
1120 nM	2.57 µM	–	–	Cc1ccc(NC(=S)NNC(=O)c2ccncc2)cc1
–	–	–	> 10000 nM	Cc1ccc(NC(=S)NNC(=O)c2ccccc2O)cc1
970 nM	12.3 µM	871 nM	–	C=CCNC(=S)NNC(=O)c1ccncc1
760 nM	–	–	> 10000 nM	C=CCNC(=S)NNC(=O)c1ccccc1O
980 nM	–	–	> 10000 nM	O=C(NNC(=S)NCc1ccccc1)c1ccccc1O
–	3.61 µM	–	–	NC(=S)NNC(=O)c1ccncc1

Structure (SMILES)	Ki [1]	Activity [2]	Ki [3]	Ki [4]
O=C(NNC(=S)NCc1ccccc1)c1ccncc1	964 nM	0.81 µM	–	–

Source: ChEMBL document CHEMBL3632486, “Interaction of carbonic anhydrase isozymes I, II, and IX with some pyridine and phenol hydrazinecarbothioamide derivatives” (Bioorg Med Chem Lett, 2015)
